Experimental data reported in patent EP1785721A1, “Microbial, viral and mammalian susceptibility to agents that affect cell growth and metabolism, and mode of action of compounds” (Stratos Bio Ltd., priority 2005, dated 2007).
Like-named read-outs stand apart in the source and are kept apart here.

Columns and labels:
E.coli = assay: MIC and MBC determination, two-fold serial dilutions assayed for turbidity; format: cell-based
Protocol: MIC and MBC's were determined as follows: • Two-fold serial dilutions of antibiotic in their respective media were incubated for 16-24h (depending on the bacterial strain) and assayed for turbidity.
(§1) A tube with a turbid suspension was not inhibited and a clear suspension with the lowest concentration of antibiotic showing no growth was designated MIC. MBC's were checked as follows: 0.01ml of each suspension from tubes showing no growth were added to agar plates and incubated for 48H; the lowest concentration of antibiotic from which no colonies formed was designated MBC.
To assay the nitrofurans at a concentration where the maximum sensitivity to E.coli could be achieved MIC's were determined for each compound. […] The respiratory medium was the one described previously at pH7. […] None of the nitrofurans were water soluble so prior to either MIC determination or incubation an accurately weighed sample of each compound was dissolved in 0.4ml DMSO and then 1.6ml H2O was added. When this solution was added to either tubes containing nutrient broth or to the fermentation vessels emulsions resulted. Good stirring minimised the problem in the calorimeter. No compensation was made for DMSO when diluting the samples as high concentrations of DMSO could falsify the results. […] Two types of responses were observed. […] No dependence of MIC on either RMM or power could be observed.

Micrococcus flavus [1] = assay: as above; format: cell-based
Protocol: as §1, with “MIC and MBC's were determined as follows: • Two-fold serial dilutions of antibiotic in their respective media were incubated for 16-24h (depending on the bacterial strain) and assayed for turbidity. A” for “A”

[2] = tested on: Bordetella bronchiseptica; assay: as above; format: cell-based
Protocol: as §1, with “MIC and MBC's were determined as follows: • Two-fold serial dilutions of antibiotic in their respective media were incubated for 16-24h (depending on the bacterial strain) and assayed for turbidity. A” for “A”

[3] = tested on: Bordetella bronchiseptica; assay: Flow microcalorimetry (p-t curves) of growing culture; format: cell-based
Excerpt: (§2) • a) For B. pumilus a simple glucose/salts medium was employed with a glucose concentration of 0.1 % w/v. • b) For Bord. bronch. The above salts medium was used with the addition of nicotinic acid, methionine and glutamic acid. Glutamic acid was used at a concentration of 0.2% w/v. • c) For M. flavus a semidefined medium was employed, using the same salts as a B. pumilus but also Na-citrate, biotin and protease peptone. In the calorimeter a concentration of 0.4% protease peptone was used. All medium constituents (except protease) were analytical reagents. The calorimetric medium was therefore a final concentration of 100ml of either solution a, b or c freshly autoclaved for 15 mins exactly at 121°C, 151b/sq inch. Glucose was added to the appropriate solution after autoclaving.
(§3) To the vertical face of the vessel close to its base, equidistantly spaced around the circumference, ports were fitted for an oxygen electrode and for sampling/inoculation. The fermenter was closed with a flat flanged glass lid which had five ports accommodating respectively, gas inlet tube, gas exhaust (via air condenser), inlet and outlet flow-lines to and from the calorimeter. The fermenter and lid was sealed with a p.t.f.e. gasket and clamped with a metal clip. The fermenter was placed on a magnetic stirring unit in a water jacket which allowed circulation of the thermostatically controlled water at 30°C or 37°C. The fermenter which contained a Teflon coated magnetic stirring bar, was sterilised by autoclaving.
(§4) For a typical calorimetric incubation the medium was passed through the calorimetric vessel at the same flow rate and temperature as those used in the experiment to establish a steady baseline deflection. The following operations then took place to a strict timetable. The liquid nitrogen stored ampoule was thawed at 38°C for 3 min and then stirred for 20 sec on a whirlimixer. The bacterial suspension (0.5-1.5ml) volumes was inoculated into the medium (100ml) two minutes after completion of thawing. A Gilson automatic pipette was used for inoculation. The calorimeter inlet flow-line was placed in the incubation medium 30 seconds after inoculation. The flowing incubation medium reached the calorimetric vessel two min after inlet flow-line insertion. At this time the recording of the p-t curves was started. Eight min after inoculation the outflow from the calorimeter was returned to the fermenter (after the "baseline" medium had run to waste but before the inoculated medium ran to waste) thus making a closed system. Aeration was started as soon as the inlet tube was inserted in the fermenter. Microbiological purity of the culture was checked by plating out a sample of the culture at the end of each incubation on nutrient agar (lab M).
(§5) The output of calorimetric experiments is a plot of power (energy evolution per unit of time) as a function of time. The unit of power (p) is the Watt (W) and the unit of time is the hour (h). In some experiments seconds (s) were used as time unit.
After successful freezing of Bord. bronch p-t curves for growth in different concentrations of glutamic acid from 0.1%-0.5% were obtained. It was concluded that a medium containing 0.2% glutamic acid would be sufficient for a good deflection in the microcalorimeter minimising the possibility of the bacteria clogging in the microcalorimetric cell or in the teflon tubes leading to and from the microcalorimetric cell. A pH of 7 was used in all the following experiments as this is the optimum pH for polymyxin - lipid binding.
It was of vital importance to maintain a constant oxygen tension; this was achieved by using saturation concentrations of oxygen. It was decided to use the height of the small peak as full scale deflection for the antibiotic assay as the increase in power was exponential up to this point and the peak occurred at a convenient time. This choice of assay point was empirical. The inoculum was 1.1 ± 0.06 x 10^8 cfu/ml for all the microclalorimetric incubations. […]

Micrococcus flavus [4] = assay: as above; format: cell-based; details: bacterial concentration printed '0?'
Excerpt: as §2
To the vertical face of the vessel close to its base, equidistantly spaced around the circumference, ports were fitted for an oxygen electrode and for sampling/inoculation. The fermenter was closed with a flat flanged glass lid which had five ports accommodating respectively, gas inlet tube, gas exhaust (via air condenser), inlet and outlet flow-lines to and from the calorimeter. The fermenter and lid was sealed with a p.t.f.e. gasket and clamped with a metal clip. […]

B. pumilus = assay: MIC determination, two-fold serial dilutions assayed for turbidity; format: cell-based, Bacillus pumilus
Protocol: as §1, with “MIC and MBC's were determined as follows: • Two-fold serial dilutions of antibiotic in their respective media were incubated for 16-24h (depending on the bacterial strain) and assayed for turbidity. A” for “A”

Bacillus pumilus = assay: Flow microcalorimetry (p-t curves) of growing culture; format: cell-based
Excerpt: as §2, §3, §4, §5
P-t curves of B. pumilus at 30µV full scale deflection (471.15µW) show a logarithmic increase in power. […] After 10h growth the power output was: 17% for 0.05% glucose, 22% for 0.2% glucose and 18% for 0.1% glucose. It was decided to use 0.1% glucose for microcalorimetrically monitored growth experiments, because use of 0.2% glucose could result in the bacterium clumping in the calorimetric chamber or in the Teflon tubes leading to and from the calorimeter. In 0.05% glucose B. pumilus grew slightly slower and to a smaller percentage total deflection than in the 0.1 % glucose incubations. The p-t curve of 0.1 % glucose on 10µV (157.05µW full scale deflection) was obtained.

respiring E.coli = assay: Flow microcalorimetry (p-t curves) of respiring cells in glucose buffer; format: cell-based
Protocol: The respiration experiments were carried out in glucose buffer at different pH.
The nitrofurans only differed in the length of their side chains (e.g. methyl, propyl etc.).
To assay the nitrofurans at a concentration where the maximum sensitivity to E.coli could be achieved MIC's were determined for each compound. […] The respiratory medium was the one described previously at pH7. […] No compensation was made for DMSO when diluting the samples as high concentrations of DMSO could falsify the results.

[5] = Animal case study, antibiotic treatment of a scratch to the eye; format: in vivo; details: 30 days of treatment, domestic cat with a scratch to the eye
Protocol: A domestic cat was given a mixture of antibiotics as eye drops in response to a scratch to the eye. […] Previously the cat had never been given milk (as many animals are allergic to cow's milk). The cat was now given full cream milk as part of a regimen to promote weight gain (the cat also continued to eat its usual amount of daily cat food throughout the period of weight loss). Initially weight was gained but within 24 hours weight loss resumed (presumably because the pathogenic bacteria/viruses had found a way of utilising lactose). An autopsy indicated bone-cancer as cause of death. The body wasting caused by the weight loss was very similar to that observed in early AIDS cases. However the cat had been regularly vaccinated against HTLV 1 through its 16 year life (and had never been ill in that period).

For `NC[C@@H]1O[C@H](O[C@H]2[C@@H](O)[C@H](O[C@@H]3[C@@H](O)[C@H](N)C[C@H](N)[C@H]3O[C@H]3O[C@H](CN)[C@@H](O)[C@H](O)[C@H]3N)O[C@@H]2CO)[C@H](N)[C@@H](O)[C@@H]1O.O=S(=O)(O)O` [Neomycin sulphate], the MBC (E.coli) was “NEO 5900 ug/ml”, the MIC (E.coli) was 500 mg/L and the MIC (E.coli; listed as NEO) was “NEO 5900 ug/ml”. The MIC (Micrococcus flavus [1]) was “MIC NEO 4 ug/ml”, the MIC [2] was “MIC NEO 0.25 ug/ml” and the “Observed effect on p-t curves” value ([3]; 0.25ug/ml added at 50 % of p-t curve) was “No effect on p-t curve”. The “Observed effect on p-t curves” value (Micrococcus flavus [4]; 4 ug/ml) was “No effect on p-t curve”, the “effect at MIC” value (B. pumilus; 5.1 x 10^6 cfu/ml) was “bacteriostatic” and the MIC (B. pumilus; 5.1 x 10^6 cfu/ml, inoculum used in the microcalorimetric incubations) was 2 mg/L. For the same molecule, the MIC (B. pumilus; inoculum not given) was “MIC NEO 1 ug/ml”, the MIC (B. pumilus; inoculum of 1x10^5 cfu/ml) was 0.1 mg/L and the “effect at MIC” value (B. pumilus; inoculum of 1x10^5 cfu/ml) was “bacteriostatic”. For the same molecule, the power output (Bacillus pumilus; 0.5 and 1 x MIC (1-2 µg/ml) added after an increase of 10% of full scale deflection) was “the same effect was observed”, the power output (Bacillus pumilus; 0.5 x MIC (1µg/ml) added after a 25% increase power output, 2-4h after addition) was “massive power output” and the power output (Bacillus pumilus; added after an increase in power output of 15% of full scale deflection) was “only marginally larger than that observed for the normal growth curve”. For the same molecule, the heat output (Bacillus pumilus; concentrations of < 1ug/ml or in combinations with other antibiotics, organism not named at this place) was “increased heat output”, the power output (Bacillus pumilus; higher concentrations of antibiotic (above 1 x MIC), added after 10% of full scale deflection) was “a decrease in power output was observed” and the “range of linear dose-response” value (respiring E.coli; respiration) was 10 to 100 µg/mL. For the same molecule, the “Observed effect on p-t curves” value (respiring E.coli; respiration, 500 ug/ml) was “Increase in heat output”, the “range of linear relationship between dose and the reciprocal of increase in response from the control curve” value (respiring E.coli; respiring E.coli) was 20 to 100 µg/mL and the heat output (respiring E.coli; respiring E.coli, all concentrations) was “increased heat output”. For the same molecule, the effect on power (respiring E.coli; respiring E.coli, pH 8) was “caused an increase in power”.
In the case of `CN[C@H](CC(C)C)C(=O)N[C@H]1C(=O)N[C@@H](CC(N)=O)C(=O)N[C@H]2C(=O)N[C@H]3C(=O)N[C@H](C(=O)N[C@H](C(=O)O)c4cc(O)cc(O)c4-c4cc3ccc4O)[C@H](O)c3ccc(c(Cl)c3)Oc3cc2cc(c3O[C@@H]2O[C@H](CO)[C@@H](O)[C@H](O)[C@H]2O[C@H]2C[C@](C)(N)[C@H](O)[C@H](C)O2)Oc2ccc(cc2Cl)[C@H]1O` [vancomycin], the “effect of treatment on the eye” value [5] is reported as “without any effect to the eye”.
For Polymyxin B sulphate, the MBC (E.coli) was 6.3 mg/L, the MIC (E.coli) was 6.3 mg/L and the MBC (E.coli; listed as POL) was “POL 6.3ug/ml”. For the same molecule, the MIC (E.coli; listed as POL) was “POL 6.3ug/ml”, the MIC (Micrococcus flavus [1]) was “POL 2ug/ml” and the MBC [2] was “Ug/ml MIC & MBC 2 ug/ml”. For the same molecule, the MIC [2] was “Ug/ml MIC & MBC 2 ug/ml”, the MIC ([2]; listed as POL) was “POL 2ug/ml” and the MBC ([2]; listed as polymyxin B sulphate) was 2 mg/L. For the same molecule, the MIC ([2]; listed as polymyxin B sulphate) was 2 mg/L, the “Observed effect on p-t curves” value ([3]; 0.07 ug/ml added at 18 % of p-t curve) was “No effect on growth curve” and the response ([3]; 0.033 x MIC (0.07 µg/ml)) was “no response to the antibiotic was observed”. For the same molecule, the Comments ([3]; 0.35 -2 ug/ml added at 18 % of p-t curve) was “All curves return to baseline confirmed bacteriocidal action”, the “Observed effect on p-t curves” value ([3]; 0.35 -2 ug/ml added at 18 % of p-t curve, 10 min after addition) was “Linear log dose response 10 min after addition of antibiotic CV 2.5%” and the p-t curve ([3]; 0.5 x MIC, within 10 min of addition) was “sharp decline in heat output”. The mode of action ([3]; at MIC values) was “bactericidal”, the “decline of the p-t curve” value ([3]; concentration larger than 3.5 x MIC) was “the declines were identical” and the “reversibility of the effect” value ([3]; most concentrations of antibiotic, decline in power decreased to a baseline value) was “irreversible”. The “time to observable response after addition of the antibiotic” value ([3]; usually) was at most 5 min, the “Observed effect on p-t curves” value (Micrococcus flavus [4]; 2ug/ml) was “Slightly delayed peak” and the MIC (B. pumilus; inoculum not given) was “POL 20 ug/ml”. For the same molecule, the “Observed effect on p-t curves” value (Bacillus pumilus; 20ug/ml, within 9 hours, bacterial concentration printed '0?') was “Within 9 hours growth was inhibited completely”, the Comments (respiring E.coli; respiration, 6.3 ug/ml) was “Bacteriocidal action demonstrated” and the “Observed effect on p-t curves” value (respiring E.coli; respiration, 6.3 ug/ml) was “Reduced height of p-t curve initially and returned to baseline within I hour”. The “sensitivity of the assay” value (respiring E.coli; respiring E.coli) was 3 µg/mL and the “effect on p-t curve” value (respiring E.coli; respiring E.coli, pH 7) was “reduced the initial peak height and thereafter the p-t curve returned to baseline”.
